Source: ChEMBL document CHEMBL3272011, “Aminobenzoic acid diuretics. 9. 3,4-Disubstituted 5-acylaminobenzoic acids and related compounds” (1977)

What was measured:
Canis familiaris [1] = assay: Diuretic effect in mongrel dog assessed as urinary excretion of water at 1 mg/kg, iv after 3 hrs (reference value: 0.93 +/- 0.35 ml/kg); type: functional, Canis lupus familiaris, Urine
Canis familiaris [2] = assay: Diuretic effect in mongrel dog assessed as urinary excretion of water at 0.1 mg/kg, iv after 3 hrs (reference value: 0.93 +/- 0.35 ml/kg); type: functional, Canis lupus familiaris, Urine
Canis familiaris [3] = assay: Diuretic effect in mongrel dog assessed as urinary excretion of water at 5 mg/kg, iv after 3 hrs (reference value: 0.93 +/- 0.35 ml/kg); type: functional, Canis lupus familiaris, Urine
Canis familiaris [4] = assay: Diuretic effect in mongrel dog assessed as urinary excretion of Na+ at 5 mg/kg, po after 3 hrs (reference value: 0.10 +/- 0.02 mequiv/kg); type: functional, Canis lupus familiaris, Urine
Canis familiaris [5] = assay: Diuretic effect in mongrel dog assessed as urinary excretion of Na+ at 1 mg/kg, iv after 3 hrs (reference value: 0.10 +/- 0.02 mequiv/kg); type: functional, Canis lupus familiaris, Urine
Canis familiaris [6] = assay: Diuretic effect in mongrel dog assessed as urinary excretion of Na+ at 0.1 mg/kg, iv after 3 hrs (reference value: 0.10 +/- 0.02 mequiv/kg); type: functional, Canis lupus familiaris, Urine
Canis familiaris [7] = assay: Diuretic effect in mongrel dog assessed as urinary excretion of Na+ at 5 mg/kg, iv after 3 hrs (reference value: 0.10 +/- 0.02 mequiv/kg); type: functional, Canis lupus familiaris, Urine
Canis familiaris [8] = assay: Diuretic effect in mongrel dog assessed as urinary excretion of Na+ at 1 mg/kg, po after 3 hrs (reference value: 0.10 +/- 0.02 mequiv/kg); type: functional, Canis lupus familiaris, Urine
Canis familiaris [9] = assay: Diuretic effect in mongrel dog assessed as urinary excretion of K+ at 1 mg/kg, iv after 3 hrs (reference value: 0.16 +/- 0.01 mequiv/kg); type: functional, Canis lupus familiaris, Urine
Canis familiaris [10] = assay: Diuretic effect in mongrel dog assessed as urinary excretion of K+ at 0.1 mg/kg, iv after 3 hrs (reference value: 0.16 +/- 0.01 mequiv/kg); type: functional, Canis lupus familiaris, Urine
Canis familiaris [11] = assay: Diuretic effect in mongrel dog assessed as urinary excretion of K+ at 5 mg/kg, iv after 3 hrs (reference value: 0.16 +/- 0.01 mequiv/kg); type: functional, Canis lupus familiaris, Urine
Canis familiaris [12] = assay: Diuretic effect in mongrel dog assessed as urinary excretion of Cl- at 1 mg/kg, iv after 3 hrs (reference value: 0.08 +/- 0.02 mequiv/kg); type: functional, Canis lupus familiaris, Urine
Canis familiaris [13] = assay: Diuretic effect in mongrel dog assessed as urinary excretion of Cl- at 0.1 mg/kg, iv after 3 hrs (reference value: 0.08 +/- 0.02 mequiv/kg); type: functional, Canis lupus familiaris, Urine
Canis familiaris [14] = assay: Diuretic effect in mongrel dog assessed as urinary excretion of Cl- at 5 mg/kg, iv after 3 hrs (reference value: 0.08 +/- 0.02 mequiv/kg); type: functional, Canis lupus familiaris, Urine
Canis familiaris [15] = assay: Diuretic effect in mongrel dog assessed as urinary excretion of water at 1 mg/kg, po after 3 hrs (reference value: 0.93 +/- 0.35 ml/kg); type: functional, Canis lupus familiaris, Urine
Canis familiaris [16] = assay: Diuretic effect in mongrel dog assessed as urinary excretion of water at 5 mg/kg, po after 3 hrs (reference value: 0.93 +/- 0.35 ml/kg); type: functional, Canis lupus familiaris, Urine
Canis familiaris [17] = assay: Diuretic effect in mongrel dog assessed as urinary excretion of water at 1 mg/kg, po after 6 hrs (reference value: 1.73 +/- 0.46 ml/kg); type: functional, Canis lupus familiaris, Urine
Canis familiaris [18] = assay: Diuretic effect in mongrel dog assessed as urinary excretion of water at 0.25 mg/kg, po after 6 hrs (reference value: 1.73 +/- 0.46 ml/kg); type: functional, Canis lupus familiaris, Urine
Canis familiaris [19] = assay: Diuretic effect in mongrel dog assessed as urinary excretion of Na+ at 1 mg/kg, po after 6 hrs (reference value: 0.27 +/- 0.09 mequiv/kg); type: functional, Canis lupus familiaris, Urine
Canis familiaris [20] = assay: Diuretic effect in mongrel dog assessed as urinary excretion of Na+ at 0.25 mg/kg, po after 6 hrs (reference value: 0.27 +/- 0.09 mequiv/kg); type: functional, Canis lupus familiaris, Urine
Canis familiaris [21] = assay: Diuretic effect in mongrel dog assessed as urinary excretion of K+ at 1 mg/kg, po after 3 hrs (reference value: 0.16 +/- 0.01 mequiv/kg); type: functional, Canis lupus familiaris, Urine
Canis familiaris [22] = assay: Diuretic effect in mongrel dog assessed as urinary excretion of K+ at 5 mg/kg, po after 3 hrs (reference value: 0.16 +/- 0.01 mequiv/kg); type: functional, Canis lupus familiaris, Urine
Canis familiaris [23] = assay: Diuretic effect in mongrel dog assessed as urinary excretion of K+ at 1 mg/kg, po after 6 hrs (reference value: 0.24 +/- 0.03 mequiv/kg); type: functional, Canis lupus familiaris, Urine
Canis familiaris [24] = assay: Diuretic effect in mongrel dog assessed as urinary excretion of K+ at 0.25 mg/kg, po after 6 hrs (reference value: 0.24 +/- 0.03 mequiv/kg); type: functional, Canis lupus familiaris, Urine
Canis familiaris [25] = assay: Diuretic effect in mongrel dog assessed as urinary excretion of Cl- at 1 mg/kg, po after 3 hrs (reference value: 0.08 +/- 0.02 mequiv/kg); type: functional, Canis lupus familiaris, Urine
Canis familiaris [26] = assay: Diuretic effect in mongrel dog assessed as urinary excretion of Cl- at 5 mg/kg, po after 3 hrs (reference value: 0.08 +/- 0.02 mequiv/kg); type: functional, Canis lupus familiaris, Urine
Canis familiaris [27] = assay: Diuretic effect in mongrel dog assessed as urinary excretion of Cl- at 1 mg/kg, po after 6 hrs (reference value: 0.17 +/- 0.09 mequiv/kg); type: functional, Canis lupus familiaris, Urine
Canis familiaris [28] = assay: Diuretic effect in mongrel dog assessed as urinary excretion of Cl- at 0.25 mg/kg, iv after 3 hrs (reference value: 0.08 +/- 0.02 mequiv/kg)
Canis familiaris [29] = assay: Diuretic effect in mongrel dog assessed as urinary excretion of water at 10 mg/kg, iv after 3 hrs (reference value: 0.93 +/- 0.35 ml/kg); type: functional, Canis lupus familiaris, Urine
Canis familiaris [30] = assay: Diuretic effect in mongrel dog assessed as urinary excretion of Na+ at 10 mg/kg, iv after 3 hrs (reference value: 0.10 +/- 0.02 mequiv/kg); type: functional, Canis lupus familiaris, Urine
Canis familiaris [31] = assay: Diuretic effect in mongrel dog assessed as urinary excretion of K+ at 10 mg/kg, iv after 3 hrs (reference value: 0.16 +/- 0.01 mequiv/kg); type: functional, Canis lupus familiaris, Urine
Canis familiaris [32] = assay: Diuretic effect in mongrel dog assessed as urinary excretion of Cl- at 10 mg/kg, iv after 3 hrs (reference value: 0.08 +/- 0.02 mequiv/kg); type: functional, Canis lupus familiaris, Urine
Canis familiaris [33] = assay: Diuretic effect in mongrel dog assessed as urinary excretion of water at 0.25 mg/kg, po after 3 hrs (reference value: 0.93 +/- 0.35 ml/kg); type: functional, Canis lupus familiaris, Urine
Canis familiaris [34] = assay: Diuretic effect in mongrel dog assessed as urinary excretion of Na+ at 0.25 mg/kg, po after 3 hrs (reference value: 0.10 +/- 0.02 mequiv/kg); type: functional, Canis lupus familiaris, Urine
Canis familiaris [35] = assay: Diuretic effect in mongrel dog assessed as urinary excretion of K+ at 0.25 mg/kg, po after 3 hrs (reference value: 0.16 +/- 0.01 mequiv/kg); type: functional, Canis lupus familiaris, Urine
Canis familiaris [36] = assay: Diuretic effect in mongrel dog assessed as urinary excretion of Cl- at 0.25 mg/kg, po after 3 hrs (reference value: 0.08 +/- 0.02 mequiv/kg); type: functional, Canis lupus familiaris, Urine
Canis familiaris [37] = assay: Diuretic effect in mongrel dog assessed as urinary excretion of Cl- at 1 mg/kg, po after 3 hrs (reference value: 0.08 +/- 0.02 mequiv/kg)
Canis familiaris [38] = assay: Diuretic effect in mongrel dog assessed as urinary excretion of water at 0.25 mg/kg, iv after 3 hrs (reference value: 0.93 +/- 0.35 ml/kg); type: functional, Canis lupus familiaris, Urine
Canis familiaris [39] = assay: Diuretic effect in mongrel dog assessed as urinary excretion of Na+ at 0.25 mg/kg, iv after 3 hrs (reference value: 0.10 +/- 0.02 mequiv/kg); type: functional, Canis lupus familiaris, Urine
Canis familiaris [40] = assay: Diuretic effect in mongrel dog assessed as urinary excretion of K+ at 0.25 mg/kg, iv after 3 hrs (reference value: 0.16 +/- 0.01 mequiv/kg); type: functional, Canis lupus familiaris, Urine
Canis familiaris [41] = assay: Diuretic effect in mongrel dog assessed as urinary excretion of Cl- at 0.25 mg/kg, iv after 3 hrs (reference value: 0.08 +/- 0.02 mequiv/kg); type: functional, Canis lupus familiaris, Urine
Canis familiaris [42] = assay: Diuretic effect in mongrel dog assessed as urinary excretion of Na+ at 0.01 mg/kg, po after 3 hrs (reference value: 0.10 +/- 0.02 mequiv/kg); type: functional, Canis lupus familiaris, Urine
Canis familiaris [43] = assay: Diuretic effect in mongrel dog assessed as urinary excretion of K+ at 0.01 mg/kg, po after 3 hrs (reference value: 0.16 +/- 0.01 mequiv/kg); type: functional, Canis lupus familiaris, Urine
Canis familiaris [44] = assay: Diuretic effect in mongrel dog assessed as urinary excretion of Cl- at 0.01 mg/kg, po after 3 hrs (reference value: 0.08 +/- 0.02 mequiv/kg); type: functional, Canis lupus familiaris, Urine
Canis familiaris [45] = assay: Diuretic effect in mongrel dog assessed as urinary excretion of water at 0.01 mg/kg, iv after 3 hrs (reference value: 0.93 +/- 0.35 ml/kg)

Row | Structure (SMILES) | Activity (Canis familiaris [1]) [mL/kg] | Activity (Canis familiaris [2]) [mL/kg] | Activity (Canis familiaris [5]) [milliequivalent/kg] | Activity (Canis familiaris [6]) [milliequivalent/kg] | Activity (Canis familiaris [9]) [milliequivalent/kg] | Activity (Canis familiaris [10]) [milliequivalent/kg] | Activity (Canis familiaris [12]) [milliequivalent/kg] | Activity (Canis familiaris [13]) [milliequivalent/kg] | Activity (Canis familiaris [29]) [mL/kg] | Activity (Canis familiaris [30]) [milliequivalent/kg] | Activity (Canis familiaris [31]) [milliequivalent/kg] | Activity (Canis familiaris [32]) [milliequivalent/kg] | Activity (Canis familiaris [33]) [mL/kg] | Activity (Canis familiaris [34]) [milliequivalent/kg] | Activity (Canis familiaris [35]) [milliequivalent/kg] | Activity (Canis familiaris [36]) [milliequivalent/kg] | further results
1 | O=CNc1cc(C(=O)O)cc(OCc2ccccc2)c1C(=O)c1ccccc1 | 9 | 9 | 1.1 | 1 | 0.49 | 0.24 | 3.1 | 1.3 | – | – | – | – | – | – | – | – | Activity (Canis familiaris [3]): 21 mL/kg; Activity (Canis familiaris [4]): 3.1 milliequivalent/kg; Activity (Canis familiaris [7]): 2.2 milliequivalent/kg; Activity (Canis familiaris [8]): 2.5 milliequivalent/kg; Activity (Canis familiaris [11]): 0.63 milliequivalent/kg; Activity (Canis familiaris [14]): 4.5 milliequivalent/kg; Activity (Canis familiaris [15]): 21 mL/kg; Activity (Canis familiaris [16]): 33 mL/kg; Activity (Canis familiaris [17]): 22 mL/kg; Activity (Canis familiaris [18]): 18 mL/kg; Activity (Canis familiaris [19]): 2.5 milliequivalent/kg; Activity (Canis familiaris [20]): 2.1 milliequivalent/kg; Activity (Canis familiaris [21]): 0.51 milliequivalent/kg; Activity (Canis familiaris [22]): 1.09 milliequivalent/kg; Activity (Canis familiaris [23]): 0.49 milliequivalent/kg; Activity (Canis familiaris [24]): 0.41 milliequivalent/kg; Activity (Canis familiaris [25]): 3.3 milliequivalent/kg; Activity (Canis familiaris [26]): 4.5 milliequivalent/kg; Activity (Canis familiaris [27]): 3.3 milliequivalent/kg; Activity (Canis familiaris [28]): 2.6 milliequivalent/kg
2 | CC(=O)Nc1cc(C(=O)O)cc(NCc2ccccc2)c1C(=O)c1ccccc1 | 6 | – | 0.4 | – | 0.21 | – | 0.4 | – | 22 | 1.7 | 0.58 | 2.2 | – | – | – | – | –
3 | NS(=O)(=O)c1cc(C(=O)O)cc(OCc2ccccc2)c1C(=O)c1ccccc1 | – | 12 | – | 1 | – | 0.42 | – | 2 | – | – | – | – | 33 | 3.6 | 0.89 | 4.4 | –
4 | CCCCSc1cc(C(=O)O)cc(NC=O)c1C(=O)c1ccccc1 | 21 | – | 2.3 | – | 0.65 | – | – | – | – | – | – | – | 17 | 0.5 | 0.28 | 0.6 | Activity (Canis familiaris [37]): 2.1 milliequivalent/kg
5 | CCCNC(=O)Nc1cc(C(=O)O)cc(NCc2ccccc2)c1Oc1ccccc1 | 4 | – | 0.4 | – | 0.12 | – | 0.3 | – | 11 | 1.1 | 0.4 | 1.9 | – | – | – | – | –
6 | CC(=O)Nc1cc(C(=O)O)cc(NCc2ccccc2)c1Oc1ccccc1 | 11 | – | 1.4 | – | 0.55 | – | 2.1 | – | 27 | 2.8 | 0.8 | 3.8 | – | – | – | – | –
7 | O=CNc1cc(C(=O)O)cc(SCc2ccccc2)c1C(=O)c1ccccc1 | 26 | – | 2.8 | – | 0.27 | – | – | – | – | – | – | – | 10 | 0.5 | 0.1 | 0.7 | Activity (Canis familiaris [37]): 3.5 milliequivalent/kg
8 | CCCCNc1cc(C(=O)O)cc(S(N)(=O)=O)c1Oc1ccccc1 [BUMETANIDE] | – | 26 | – | 2.4 | – | 0.44 | – | 3.5 | – | – | – | – | – | – | – | – | Activity (Canis familiaris [38]): 39 mL/kg; Activity (Canis familiaris [39]): 4 milliequivalent/kg; Activity (Canis familiaris [40]): 0.84 milliequivalent/kg; Activity (Canis familiaris [41]): 5.7 milliequivalent/kg; Activity (Canis familiaris [42]): 0.92 milliequivalent/kg; Activity (Canis familiaris [43]): 0.27 milliequivalent/kg; Activity (Canis familiaris [44]): 1.4 milliequivalent/kg; Activity (Canis familiaris [45]): 10 mL/kg
